The nature of series [1]: Inhibition of ABCB1 in human K562/A02 cells assessed as potentiation of adriamycin-induced cytotoxicity by measuring ADR IC50 at 5 uM measured after 48 hrs by MTT assay (Rvb = 43.75 to 96.91 uM).
Series [2] in a line: Inhibition of ABCB1 in human K562/A02 cells assessed as potentiation of adriamycin-induced cytotoxicity by measuring ADR IC50 treated for 48 hrs followed by compound washout measured after 12 hrs by MTT assay (Rvb = 51.34 +/- 5.1 uM).
A short description of series [3]: Inhibition of ABCB1 in human K562/A02 cells assessed as potentiation of adriamycin-induced cytotoxicity by measuring ADR IC50 measured after 48 hrs by MTT assay (Rvb = 51.34 +/- 5.1 uM).
Series [4] in a line: Inhibition of ABCB1 in human K562/A02 cells assessed as potentiation of adriamycin-induced cytotoxicity by measuring ADR IC50 treated for 48 hrs followed by compound washout measured after 6 hrs by MTT assay (Rvb = 51.34 +/- 5.1 uM).
Series [5] can be described thus: Inhibition of ABCB1 in human K562/A02 cells assessed as potentiation of adriamycin-induced cytotoxicity by measuring ADR IC50 treated for 48 hrs followed by compound washout measured immediately by MTT assay (Rvb = 51.34 +/- 5.1 uM).
Series [6] is described as follows: Inhibition of ABCB1 in human K562/A02 cells assessed as potentiation of adriamycin-induced cytotoxicity by measuring ADR IC50 treated for 48 hrs followed by compound washout measured after 24 hrs by MTT assay (Rvb = 51.34 +/- 5.1 uM).
Series [7] deals with ATP-dependent translocase ABCB1 (Homo sapiens, UniProt P08183). As to the kind of experiment: Inhibition of ABCB1 in human K562/A02 cells assessed as potentiation of adriamycin-induced cytotoxicity by measuring ADR IC50 at 5 uM measured after 48 hrs by MTT assay (Rvb = 43.75 to 96.91 uM).
Series [8] can be described thus: Inhibition of ABCB1 in human K562/A02 cells assessed as potentiation of adriamycin-induced cytotoxicity by measuring ADR IC50 at 0.1 uM measured after 48 hrs by MTT assay (Rvb = 43.75 uM).
Series [9] is described as follows: Inhibition of ABCB1 in human K562/A02 cells assessed as potentiation of adriamycin-induced cytotoxicity by measuring ADR IC50 at 1 uM measured after 48 hrs by MTT assay (Rvb = 43.75 uM).
Series [10] in a line: Inhibition of ABCB1 in human K562/A02 cells assessed as potentiation of adriamycin-induced cytotoxicity by measuring ADR IC50 at 0.5 uM measured after 48 hrs by MTT assay (Rvb = 43.75 uM).
Series [11] can be described thus: Inhibition of ABCB1 in human K562/A02 cells assessed as potentiation of adriamycin-induced cytotoxicity measured after 48 hrs by MTT assay.
Series [12] can be described thus: Inhibition of ABCB1 in human K562/A02 cells assessed as potentiation of adriamycin-induced cytotoxicity by measuring ADR IC50 at 2.5 uM measured after 48 hrs by MTT assay (Rvb = 43.75 uM).
Series [13] is described as follows: Inhibition of ABCB1 in human K562/A02 cells assessed as potentiation of adriamycin-induced cytotoxicity by measuring ADR IC50 at 0.05 uM measured after 48 hrs by MTT assay (Rvb = 43.75 uM).
A short description of series [14]: Inhibition of ABCB1 in human K562/A02 cells assessed as potentiation of adriamycin-induced cytotoxicity by measuring ADR IC50 at 0.25 uM measured after 48 hrs by MTT assay (Rvb = 43.75 uM).
Series [15] in a line: Inhibition of ABCB1 in human K562/A02 cells assessed as potentiation of adriamycin-induced cytotoxicity by measuring ADR IC50 at 0.025 uM measured after 48 hrs by MTT assay (Rvb = 43.75 uM).

Molecules are shown by their SMILES.

Chain of ATP-dependent translocase ABCB1 (P08183 whole entry): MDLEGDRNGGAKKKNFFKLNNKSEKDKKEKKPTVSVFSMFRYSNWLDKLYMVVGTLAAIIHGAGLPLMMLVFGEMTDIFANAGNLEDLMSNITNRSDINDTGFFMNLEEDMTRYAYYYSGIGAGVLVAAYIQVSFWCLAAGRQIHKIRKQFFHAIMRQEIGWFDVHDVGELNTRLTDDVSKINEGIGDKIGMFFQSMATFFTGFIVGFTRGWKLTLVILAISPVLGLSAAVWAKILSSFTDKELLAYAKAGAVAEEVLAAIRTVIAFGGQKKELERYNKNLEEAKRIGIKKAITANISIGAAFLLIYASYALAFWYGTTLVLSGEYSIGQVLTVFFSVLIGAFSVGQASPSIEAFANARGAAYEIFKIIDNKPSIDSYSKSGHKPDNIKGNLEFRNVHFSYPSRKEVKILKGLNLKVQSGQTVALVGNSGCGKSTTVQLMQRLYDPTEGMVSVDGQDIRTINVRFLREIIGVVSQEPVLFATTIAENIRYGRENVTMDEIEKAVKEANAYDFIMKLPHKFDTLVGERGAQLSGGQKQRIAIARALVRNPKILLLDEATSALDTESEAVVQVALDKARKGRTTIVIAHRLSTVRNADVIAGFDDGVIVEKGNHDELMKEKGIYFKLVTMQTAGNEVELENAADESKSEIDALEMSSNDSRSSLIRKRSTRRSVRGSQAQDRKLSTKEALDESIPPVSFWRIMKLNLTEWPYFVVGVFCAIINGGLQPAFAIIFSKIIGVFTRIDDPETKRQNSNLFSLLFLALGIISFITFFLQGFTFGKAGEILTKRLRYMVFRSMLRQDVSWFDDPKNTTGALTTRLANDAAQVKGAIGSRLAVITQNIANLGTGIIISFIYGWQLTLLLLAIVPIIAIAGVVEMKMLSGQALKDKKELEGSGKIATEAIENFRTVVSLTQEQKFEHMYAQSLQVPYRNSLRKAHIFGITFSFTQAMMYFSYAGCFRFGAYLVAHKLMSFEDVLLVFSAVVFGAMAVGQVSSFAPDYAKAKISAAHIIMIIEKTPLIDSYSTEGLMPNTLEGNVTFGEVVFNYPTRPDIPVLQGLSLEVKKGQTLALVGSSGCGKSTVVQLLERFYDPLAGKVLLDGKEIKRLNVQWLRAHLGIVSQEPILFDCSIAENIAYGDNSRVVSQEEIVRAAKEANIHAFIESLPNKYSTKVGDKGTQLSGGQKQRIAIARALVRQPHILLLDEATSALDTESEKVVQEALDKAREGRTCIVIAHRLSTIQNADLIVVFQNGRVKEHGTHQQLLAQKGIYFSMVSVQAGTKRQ

On to `COc1cc2c(cc1OC)CN(CCn1cc(COc3ccccc3C(=O)Nc3ccc(OC(F)(F)F)cc3)nn1)CC2`, for which, in series [1], the IC50 is 4.52 µM.
In the case of `COc1cc2c(cc1OC)CN(CCn1cc(COc3ccccc3C(=O)Nc3ccccc3)nn1)CC2`, in series [1], the concentration for half-maximal inhibition (IC50) was determined as 25.5 µM.
`CCCCc1ccc(NC(=O)c2ccccc2OCc2cn(CCN3CCc4cc(OC)c(OC)cc4C3)nn2)cc1`: the IC50 in series [1] was 6.25 µM.
Take `COc1cc2c(cc1OC)CN(CCn1cc(COc3ccccc3C(=O)Nc3ccc([N+](=O)[O-])cc3)nn1)CC2`: the IC50 in series [1] stood at 21.1 µM.
In the case of `COc1ccc(NC(=O)c2ccccc2OCc2cn(CCN3CCc4cc(OC)c(OC)cc4C3)nn2)cc1`, the IC50 in series [1] came to 8.38 µM.
Still for that read-out and setting: to `COc1cc2c(cc1OC)CN(CCn1cc(COc3ccccc3C(=O)Nc3cccc([N+](=O)[O-])c3)nn1)CC2` belongs 27.7 µM.
On the same count and under the same terms, to `COc1cc2c(cc1OC)CN(CCn1cc(COc3ccccc3NC(=O)c3ccc(C(C)(C)C)cc3)nn1)CC2` belongs 3.42 µM; to `COc1cc2c(cc1OC)CN(CCn1cc(COc3ccccc3C(=O)Nc3cc(OC)c(OC)c(OC)c3)nn1)CC2`, 31.9 µM.
On to `COc1cc2c(cc1OC)CN(CCc1ccc(NC(=O)c3cc(OC)c(OC)cc3NC(=O)c3cnc4ccccc4c3)cc1)CC2`, for which the IC50 in [2] worked out at 8.28 µM; in series [3], 1.6 µM; in series [4], 4.97 µM; in series [1] it was 1.97 µM; in series [5], 3.02 µM; in [6] it was 14.4 µM.
With `COc1cc2c(cc1OC)CN(CCn1cc(COc3ccccc3C(=O)Nc3ccc(F)cc3)nn1)CC2`, the 50% inhibitory concentration (IC50) in [1] worked out at 8.29 µM.
For `COc1cccc(NC(=O)c2ccccc2OCc2cn(CCN3CCc4cc(OC)c(OC)cc4C3)nn2)c1`, the IC50 in series [7] worked out at 8.73 µM.
Regarding `COc1cc2c(cc1OC)CN(CCn1cc(COc3ccccc3C(=O)Nc3ccccc3[N+](=O)[O-])nn1)CC2`, the half-inhibitory concentration (IC50) in series [1] worked out at 26.9 µM.
On to `COc1ccc(NC(=O)c2ccccc2OCc2cn(CCN3CCc4cc(OC)c(OC)cc4C3)nn2)cc1OC`, for which the IC50 in [1] is 7.82 µM.
On to `COc1cc2c(cc1OC)CN(CCn1cc(COc3ccccc3C(=O)Nc3ccc(Cl)cc3)nn1)CC2`, for which the IC50 in [1] worked out at 6.93 µM.
On to `COc1cc2c(cc1OC)CN(CCn1cc(COc3ccccc3C(=O)Nc3ccc(C)cc3)nn1)CC2`, for which, in series [1], the IC50 turned out to be 7.65 µM.
Regarding `COc1cc2c(cc1OC)CN(CCn1cc(COc3ccccc3C(=O)Nc3cccc(C)c3)nn1)CC2`, the IC50 in [1] was determined as 12.2 µM.
For `COc1cc2c(cc1OC)CN(CCn1cc(COc3ccccc3C(=O)Nc3cccc(Cl)c3)nn1)CC2`, the IC50 in [1] was 22.8 µM.
With `COc1cc2c(cc1OC)CN(CCn1cc(COc3ccccc3C(=O)Nc3ccc(C(C)(C)C)cc3)nn1)CC2`, the IC50 turned out to be 34.9 µM in [8]; 10.3 µM in series [2]; 6.02 µM in series [9]; 12.5 µM in series [10]; 1.26 µM in [3]; 6.32 µM in series [4]. The IC50 was 1.27 µM in [7]; 4.33 µM in [5]; 3.33 µM in series [12]; 37.2 µM in [13]; 18.4 µM in [14]; 37.2 µM in series [15]. For the same compound, in series [6], the IC50 amounted to 17.2 µM. The EC50 in [11] came to 0.256 µM.

Values taken from BindingDB's records for doi:10.1016/j.bmc.2017.06.015 (China Pharmaceutical University, 2017).
